Literature values as cited in patent publication US20260265270A1 (priority 2023, published 2026).

Columns and labels:
[1] = test system: IL-23 secreted by monocytes; details: after administration of the inhibitor
IL-2 secreted by T cells = details: after administration of the inhibitor

COc1ccc(C[C@H](NC(=O)[C@H](C)NC(=O)CN2CCOCC2)C(=O)N[C@@H](Cc2ccccc2)C(=O)C2(C)CO2)cc1 (stereo in doubt) [ONX0914]
IL-23 secreted by monocytes [1]: decrease significantly | IL-2 secreted by T cells (IL-2 secreted by T cells): decrease significantly
